Measurements as given in US11524966B1 (Valo Early Discovery, Inc., priority 2017, dated 2022).

The compounds below were run against T1, USP28 (USP28-5(1-1077)-TEV-6*His; LifeSensors) (Homo sapiens, UniProt Q96RU2) (assay: Ubiquitin-Rhodamine 110 Assay for USP28 Activity, Example A-1(b)). Details: Ubiquitin-Rhodamine 110 assay, Example A-1(b).
T1 construct: construct USP28 (USP28-5(1-1077)-TEV-6*His; LifeSensors); TEV cleavage site (C); 6xHis (C); purchased LifeSensors
T1 sequence (Q96RU2 1-1077): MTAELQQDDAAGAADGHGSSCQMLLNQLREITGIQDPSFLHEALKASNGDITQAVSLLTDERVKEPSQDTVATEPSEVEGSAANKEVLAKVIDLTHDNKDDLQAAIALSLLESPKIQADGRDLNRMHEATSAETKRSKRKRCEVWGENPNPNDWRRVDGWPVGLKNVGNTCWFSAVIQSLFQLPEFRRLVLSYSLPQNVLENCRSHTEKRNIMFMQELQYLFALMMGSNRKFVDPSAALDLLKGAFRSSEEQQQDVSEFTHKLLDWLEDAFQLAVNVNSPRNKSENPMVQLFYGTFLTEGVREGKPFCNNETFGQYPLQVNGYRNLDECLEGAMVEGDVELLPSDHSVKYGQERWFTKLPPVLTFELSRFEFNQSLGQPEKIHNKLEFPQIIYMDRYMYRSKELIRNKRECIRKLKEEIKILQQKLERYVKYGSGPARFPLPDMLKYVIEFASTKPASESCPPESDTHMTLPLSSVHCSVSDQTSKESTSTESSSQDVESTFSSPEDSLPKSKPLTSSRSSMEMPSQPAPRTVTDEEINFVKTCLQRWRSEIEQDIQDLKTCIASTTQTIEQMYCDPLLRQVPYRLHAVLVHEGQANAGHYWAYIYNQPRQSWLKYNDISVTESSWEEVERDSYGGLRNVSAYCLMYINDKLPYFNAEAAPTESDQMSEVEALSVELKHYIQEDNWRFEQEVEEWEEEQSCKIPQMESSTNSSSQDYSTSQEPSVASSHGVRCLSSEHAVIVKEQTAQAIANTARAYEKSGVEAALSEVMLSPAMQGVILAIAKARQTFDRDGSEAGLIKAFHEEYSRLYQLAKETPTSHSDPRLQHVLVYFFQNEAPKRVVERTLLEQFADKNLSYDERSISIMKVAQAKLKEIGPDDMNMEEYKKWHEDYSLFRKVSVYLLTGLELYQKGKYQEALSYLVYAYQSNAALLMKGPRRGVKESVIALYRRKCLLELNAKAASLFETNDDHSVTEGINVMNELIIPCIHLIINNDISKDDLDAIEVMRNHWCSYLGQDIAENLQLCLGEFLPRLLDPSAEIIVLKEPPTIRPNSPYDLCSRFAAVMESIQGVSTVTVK
Type: biochemical
Method in brief: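 Single-point screening used 10 μM compound with 90 min room-temperature incubation; follow-up dose-responses (25 μM top, 3-fold) used 75 pM USP28 1-1077 construct, 30 min compound preincubation, 25 nM Ub-Rh110, 20 min reaction, citric acid quench. Rh110 fluorescence normalised to no-enzyme and DMSO controls; IC50 from 4-parameter logistic fit.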
With Cc1nc2sc(C(=O)N[C@@H]3COc4cc(N5CC6CCC(C5)N6)c(F)cc4C3)c(N)c2s1 [Example 46, N-((3S)-7-(3 8-diazabicyclo[3.2.1]octan-3-yl)-6-fluorochroman-3-yl)-6-amino-2-methylthieno[2,3-d]thiazole-5-carboxamide] the “USP28 A-1(b) IC50 range” value was “++ (0.2-2 μM)”.
For C[C@H]1CCc2cc(C(=O)N[C@H]3COc4cc(N5CC6CCC(C5)N6)ccc4C3)cnc2N1 [Example 73, (7S)-N-((3R)-7-(3,8-diazabicyclo[3.2.1]octan-3-yl)chroman-3-yl)-7-methyl-5,6,7,8-tetrahydro-1,8-naphthyridine-3-carboxamide], the “USP28 A-1(b) IC50 range” value was “+ (>2 μM)”.
With O=C(N[C@H]1COc2cc(N3CCNCC3)ccc2C1)c1ccc(NCc2ccccc2)nc1 [Example 52, (R)-6-(benzylamino)-N-(7-(piperazin-1-yl)chroman-3-yl)nicotinamide] the “USP28 A-1(b) IC50 range” value was “+ (>2 μM)”.
With Cc1ccc2c(N)c(C(=O)N[C@H]3COc4cc(N5CCNCC5)c(F)c(F)c4C3)sc2n1 [Example 61, (R)-3-amino-N-(5,6-difluoro-7-(piperazin-1-yl)chroman-3-yl)-6-methylthieno[2,3-b]pyridine-2-carboxamide] the “USP28 A-1(b) IC50 range” value was “+++ (0.05-0.2 μM)”.
With Cc1ccc2c(N)c(C(=O)N[C@H]3COc4cc(N5CCNCC5)cc(Cl)c4C3)sc2n1 [Example 48, (R)-3-amino-N-(5-chloro-7-(piperazin-1-yl)chroman-3-yl)-6-methylthieno[2,3-b]pyridine-2-carboxamide] the “USP28 A-1(b) IC50 range” value was “+++ (0.05-0.2 μM)”.
For Cc1ccc2c(N)c(C(=O)N[C@@H]3COc4cc(N5C[C@H]6CNC[C@@H]6C5)ccc4C3)sc2n1 [Example 44, 3-amino-N-((S)-7-((3aR,6aR)-hexahydropyrrolo[3,4-c]pyrrol-2(1H)-yl)chroman-3-yl)-6-methylthieno[2,3-b]pyridine-2-carboxamide], the “USP28 A-1(b) IC50 range” value was “+ (>2 μM)”.
With Cc1ccc2c(N)c(C(=O)N[C@H]3COc4c(F)c(N5CCNCC5)cc(F)c4C3)sc2n1 [Example 55, (R)-3-amino-N-(5,8-difluoro-7-(piperazin-1-yl)chroman-3-yl)-6-methylthieno[2,3-b]pyridine-2-carboxamide] the “USP28 A-1(b) IC50 range” value was “++++ (0.001-0.05 μM)”.
In the case of O=C(N[C@@H]1COc2cc(N3CCNCC3)ccc2C1)c1cnc2c(ccn2C(F)F)c1 [Example 39, (S)-1-(difluoromethyl)-N-(7-(piperazin-1-yl)chroman-3-yl)-1H-pyrrolo[2,3-b]pyridine-5-carboxamide], the “USP28 A-1(b) IC50 range” value was “+ (>2 μM)”.
With Cc1cnc2c(N)c(C(=O)N[C@H]3COc4cc(N5CC6CCC(C5)N6)c(F)cc4C3)sc2n1 (single isomer, unassigned) [Example 40] the “USP28 A-1(b) IC50 range” value was “+++ (0.05-0.2 μM)”.
In the case of Cc1cnc2c(N)c(C(=O)N[C@@H]3COc4cc(N5CC6CCC(C5)N6)c(F)cc4C3)sc2n1 (single isomer, unassigned) [Example 41], the “USP28 A-1(b) IC50 range” value was “+ (>2 μM)”.
For Cc1ccc2c(N)c(C(=O)N[C@@H]3COc4cc(N5CCNCC5)cc(Cl)c4C3)sc2n1 [Example 49, (S)-3-amino-N-(5-chloro-7-(piperazin-1-yl)chroman-3-yl)-6-methylthieno[2,3-b]pyridine-2-carboxamide], the “USP28 A-1(b) IC50 range” value was “+ (>2 μM)”.
For C[C@H](Nc1ccc(C(=O)N[C@H]2COc3cc(N4CCNCC4)ccc3C2)cn1)c1ccccc1 [Example 53, 6-(((S)-1-phenylethyl)amino)-N-((R)-7-(piperazin-1-yl)chroman-3-yl)nicotinamide], the “USP28 A-1(b) IC50 range” value was “+ (>2 μM)”.
With O=C(N[C@H]1COc2cc(N3CCNCC3)ccc2C1)c1cnc2c(c1)CC[C@@H]2O [Example 58, (S)-7-hydroxy-N-((R )-7-(piperazin-1-yl)chroman-3-yl)-6,7-dihydro-5H-cyclopenta[b]pyridine-3-carboxamide] the “USP28 A-1(b) IC50 range” value was “+ (>2 μM)”.
Cc1ccc2c(N)c(C(=O)N[C@H]3COc4cc(N5C[C@H]6CNC[C@@H]6C5)ccc4C3)sc2n1 [Example 43, 3-amino-N-((R)-7-((3aR,6aR)-hexahydropyrrolo[3,4-c]pyrrol-2(1H)-yl)chroman-3-yl)-6-methylthieno[2,3-b]pyridine-2-carboxamide] was tested, and the “USP28 A-1(b) IC50 range” value was “+ (>2 μM)”.
Cc1ccc2c(N)c(C(=O)N[C@H]3COc4cc([C@@H]5CCNC[C@@H]5O)ccc4C3)sc2n1 [Example 63, 3-amino-N-((R)-7-((3R,4S)-3-hydroxypiperidin-4-yl)chroman-3-yl)-6-methylthieno[2,3-b]pyridine-2-carboxamide] was tested, and the “USP28 A-1(b) IC50 range” value was “+++ (0.05-0.2 μM)”.
With C[C@@H](Nc1ccc(C(=O)N[C@H]2COc3cc(N4CCNCC4)ccc3C2)cn1)c1ccccc1 [Example 54, 6-(((R)-1-phenylethyl)amino)-N-((R)-7-(piperazin-1-yl)chroman-3-yl)nicotinamide] the “USP28 A-1(b) IC50 range” value was “+ (>2 μM)”.
With O=C(N[C@H]1COc2cc(N3CC4CCC(C3)N4)ccc2C1)c1cnc2c(c1)CCCO2 [Example 51, N-((3R)-7-(3,8-diazabicyclo[3.2.1]octan-3-yl)chroman-3-yl)-3,4-dihydro-2H-pyrano[2,3-b]pyridine-6-carboxamide] the “USP28 A-1(b) IC50 range” value was “+ (>2 μM)”.
With O=C(N[C@H]1COc2cc(N3CC4CCC(C3)N4)ccc2C1)c1cnc2c(c1)CCCN2 [Example 50, N-((3R)-7-(3,8-diazabicyclo[3.2.1]octan-3-yl)chroman-3-yl)-5,6,7,8-tetrahydro-1,8-naphthyridine-3-carboxamide] the “USP28 A-1(b) IC50 range” value was “++ (0.2-2 μM)”.
Cc1nc2sc(C(=O)N[C@H]3COc4c(F)c(N5CCNCC5)cc(F)c4C3)c(N)c2s1 [Example 56, (R)-6-amino-N-(5,8-difluoro-7-(piperazin-1-yl)chroman-3-yl)-2-methylthieno[2,3-d]thiazole-5-carboxamide] was tested, and the “USP28 A-1(b) IC50 range” value was “+++ (0.05-0.2 μM)”.
For Cc1cnc2c(N)c(C(=O)N[C@H]3COc4c(C#N)c(N5CCNCC5)cc(F)c4C3)sc2n1 [Example 60, (R)-7-amino-N-(8-cyano-5-fluoro-7-(piperazin-1-yl)chroman-3-yl)-3-methylthieno[2,3-b]pyrazine-6-carboxamide], the “USP28 A-1(b) IC50 range” value was “++ (0.2-2 μM)”.
In the case of CCc1cnc2sc(C(=O)N[C@H]3COc4cc(N5CCNCC5)ccc4C3)c(N)c2n1 [Example 36, (R)-7-amino-2-ethyl-N-(7-(piperazin-1-yl)chroman-3-yl)thieno[2,3-b]pyrazine-6-carboxamide], the “USP28 A-1(b) IC50 range” value was “++ (0.2-2 μM)”.
CCc1cnc2sc(C(=O)N[C@@H]3COc4cc(N5CCNCC5)ccc4C3)c(N)c2n1 [Example 37, (S)-7-amino-2-ethyl-N-(7-(piperazin-1-yl)chroman-3-yl)thieno[2,3-b]pyrazine-6-carboxamide] was tested, and the “USP28 A-1(b) IC50 range” value was “+ (>2 μM)”.
For Cc1nc2sc(C(=O)N[C@H]3COc4cc(N5CC6CCC(C5)N6)c(F)cc4C3)c(N)c2s1 [Example 47, N-((3R)-7-(3,8-diazabicyclo[3.2.1]octan-3-yl)-6-fluorochroman-3-yl)-6-amino-2-methylthieno[2,3-d]thiazole-5-carboxamide], the “USP28 A-1(b) IC50 range” value was “+ (>2 μM)”.
For Cc1ccc2c(N)c(C(=O)N[C@H]3COc4cc([C@H]5CCNC[C@H]5O)ccc4C3)sc2n1 [Example 62, 3-amino-N-((R)-7-((3S,4R)-3-hydroxypiperidin-4-yl)chroman-3-yl)-6-methylthieno[2,3-b]pyridine-2-carboxamide], the “USP28 A-1(b) IC50 range” value was “++++ (0.001-0.05 μM)”.
For O=C(N[C@H]1COc2cc(N3CCNCC3)ccc2C1)c1cnc2c(c1)CC[C@H]2O [Example 57, (R)-7-hydroxy-N-((R)-7-(piperazin-1-yl)chroman-3-yl)-6,7-dihydro-5H-cyclopenta[b]pyridine-3-carboxamide], the “USP28 A-1(b) IC50 range” value was “+ (>2 μM)”.
With O=C(N[C@H]1COc2cc(N3CCNCC3)ccc2C1)c1cnc2c(ccn2Cc2ccccc2)c1 [Example 59, (R)-1-benzyl-N-(7-(piperazin-1-yl)chroman-3-yl)-1H-pyrrolo[2,3-b]pyridine-5-carboxamide] the “USP28 A-1(b) IC50 range” value was “+++ (0.05-0.2 μM)”.
Nc1c(C(=O)N[C@H]2COc3cc(N4CCNCC4)ccc3C2)sc2nc(C3CC3)sc12 [Example 45] was tested, and the “USP28 A-1(b) IC50 range” value was “++ (0.2-2 μM)”.
With O=C(N[C@H]1COc2cc(N3CCNCC3)ccc2C1)c1cnc2c(ccn2C(F)F)c1 [Example 38, (R)-1-(difluoromethyl)-N-(7-(piperazin-1-yl)chroman-3-yl)-1H-pyrrolo[2,3-b]pyridine-5-carboxamide] the “USP28 A-1(b) IC50 range” value was “+ (>2 μM)”.
